Earlier results, collected in US20050228336A1, “Electrically assisted lidocaine and epinephrine delivery device having extended shelf-stability” (priority 2004, published 2005).

Conditions: iontophoresis in vitro across human skin

Cumulative delivery compared with lidocaine | Structure (SMILES)
slightly greater delivery | CCN(CC)CCOC(=O)c1ccc(N)cc1 [procaine]
slightly greater delivery | CCCN(CC)C(CC)C(=O)Nc1c(C)cccc1C (stereo not drawn) [etidocaine]
slightly greater delivery | CCCNC(C)C(=O)Nc1ccccc1C (stereo not drawn) [prilocalne]
